US12065445B2, “CDK2 inhibitors and methods of using the same” (Cedilla Therapeutics, Inc., priority 2021, dated 2024)

How the values were obtained:
[1] = system: Kuramochi cells labeled with mApple-H2B; assay: IncuCyte Cell Proliferation Assay; format: cell-based; details: 72 h
How it was run: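 Cells imaged at 0 and 72 h after compound treatment (10 points, ½ log dilution, 20 μM top), with fluorescent nuclei counted. Fold change in count was normalized to DMSO wells and fitted to dose-response curves to give GI50.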

Kuramochi cells = assay: BrdU Cell Proliferation Assay; format: cell-based; details: read-out: BrdU - KURAMOCHI.1: IC50
How it was run: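 Kuramochi cells were seeded at 2,000 cells/well, adhered overnight, then treated with a 10-point, 3-fold compound dilution series for 4 days. Proliferation was measured by a 1-hour BrdU pulse, anti-BrdU peroxidase colorimetric ELISA and 450 nm absorbance. Values were background-subtracted and normalized to DMSO wells.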

C[C@@H](OCC1CCCCC1)[C@H](NC(=O)[C@@H]1CN(C(=O)c2cncs2)CC12CN(C(=O)[C@H]1CC1(C)C)C2)C(=O)N1CCNCC1 [I-328]
IC50 [1]: 0.5 to 5 µM
IC50 (Kuramochi cells): 0.5 to 5 µM

CC(O[C@H](C)[C@H](NC(=O)[C@@H]1CN(C(=O)c2cncs2)CC12CN(C(=O)[C@H]1CC1(C)C)C2)C(=O)N1CCCCC1)C1CCCCC1 (stereo partly drawn) [I-284, (8S)—N-((2S,3R)-3-(1-cyclohexylethoxy)-1-oxo-1-(piperidin-1-yl)butan-2-yl)-2-((S)-2,2-dimethylcyclopropane-1-carbonyl)-6-(thiazole-5-carbonyl)-2,6-diazaspiro[3.4]octane-8-carboxamide]
IC50 [1]: 0.5 to 5 µM
IC50 (Kuramochi cells): 0.5 to 5 µM

C[C@@H](OCC1CCCCC1)[C@@H](COC1CCCCC1)NC(=O)[C@@H]1CN(C(=O)c2cncs2)CC12CN(C(=O)[C@H]1CC1(C)C)C2 [I-308]
IC50 [1]: 0.5 to 5 µM
IC50 (Kuramochi cells): ≤ 0.5 µM

C[C@@H](OCC1CCCCC1)[C@H](NC(=O)[C@H]1CN(C(=O)c2cnn(Cc3ccccc3)c2)CC12CN(C(=O)[C@H]1CC1(C)C)C2)C(=O)N1CCCCC1 [I-194B]
IC50 [1]: 5 to 20 µM
IC50 (Kuramochi cells): 0.5 to 5 µM

CNC(=O)[C@@H](NC(=O)[C@@H]1CN(C(=O)c2sc(Cl)nc2Cl)CC12CN(C(=O)[C@H]1CC1(C)C)C2)[C@@H](C)OCC1CCCCC1 [I-232A]
IC50 [1]: 0.5 to 5 µM
IC50 (Kuramochi cells): 0.5 to 5 µM

C[C@@H](OCC1CCCCC1)[C@H](NC(=O)[C@@H]1CN(C(=O)c2cnn(Cc3ccccc3)c2)CC12CN(C(=O)[C@H]1CC1(C)C)C2)C(=O)N1CCCCC1 [I-194A, (S)-6-(1-benzyl-1H-pyrazole-4-carbonyl)-N-((2S,3R)-3-(cyclohexylmethoxy)-1-oxo-1-(piperidin-1-yl)butan-2-yl)-2-((S)-2,2-dimethylcyclopropane-1-carbonyl)-2,6-diazaspiro[3.4]octane-8-carboxamide]
IC50 [1]: ≤ 0.5 µM
IC50 (Kuramochi cells): ≤ 0.5 µM

CNC(=O)[C@@H](NC(=O)[C@@H]1CN(C(=O)c2cnn(Cc3ccccc3)c2)CC12CN(C(=O)[C@H]1CC1(C)C)C2)[C@@H](C)OCc1cccc(O)c1 [I-262]
IC50 [1]: > 20 µM
IC50 (Kuramochi cells): > 10 µM

COC[C@H]1CCCN(C(=O)[C@@H](NC(=O)[C@@H]2CN(C(=O)c3cncs3)CC23CN(C(=O)[C@H]2CC2(C)C)C3)[C@@H](C)OCC2CCCCC2)C1 [I-196A, (S)—N-((2S,3R)-3-(cyclohexylmethoxy)-1-((S)-3-(methoxymethyl)piperidin-1-yl)-1-oxobutan-2-yl)-2-((S)-2,2-dimethylcyclopropanecarbonyl)-6-(thiazole-5-carbonyl)-2,6-diazaspiro[3.4]octane-8-carboxamide]
IC50 [1]: ≤ 0.5 µM
IC50 (Kuramochi cells): ≤ 0.5 µM

CNC(=O)[C@@H](NC(=O)[C@@H]1CN(C(=O)c2cncs2)CC12CN(C(=O)[C@H]1CC1(C)C)C2)[C@@H](C)OC1C2CC3CC(C2)CC1C3 (stereo partly drawn) [I-463]
IC50 [1]: 0.5 to 5 µM
IC50 (Kuramochi cells): 0.5 to 5 µM

CNC(=O)[C@@H](NC(=O)[C@@H]1CN(C(=O)c2cnn(Cc3ccccc3)c2)CC12CN(C(=O)C(C)(C)C)C2)[C@@H](C)OCC1CCCCC1 [I-174A]
IC50 [1]: 0.5 to 5 µM
IC50 (Kuramochi cells): 0.5 to 5 µM

COC[C@H]1CCCN(C(=O)[C@@H](NC(=O)[C@@H]2CN(C(=O)c3cnn(Cc4ccccc4)c3)CC23CN(C(=O)[C@H]2CC2(C)C)C3)[C@@H](C)OC)C1 [I-283]
IC50 [1]: > 20 µM
IC50 (Kuramochi cells): > 10 µM

CC1(C)C[C@@H]1C(=O)N1CC2(CN(C(=O)c3cncs3)C[C@H]2C(=O)NC(c2cccc(C3CCCCC3)n2)P(C)(C)=O)C1 (stereo partly drawn) [I-494]
IC50 [1]: > 20 µM
IC50 (Kuramochi cells): > 10 µM

CO[C@H]1COCC[C@@H]1NC(=O)[C@@H]1CN(C(=O)c2cnn(Cc3ccccc3)c2)CC12CN(C(=O)[C@H]1CC1(C)C)C2 [I-131A]
IC50 [1]: > 20 µM
IC50 (Kuramochi cells): > 10 µM

Cc1ccc(CNC(=O)[C@@H]2CN(C(=O)c3cnn(Cc4ccccc4)c3)CC23CN(C(=O)[C@H]2CC2(C)C)C3)cc1 [I-363]
IC50 [1]: 5 to 20 µM
IC50 (Kuramochi cells): 5 to 10 µM

C[C@@H](OCC1CCCCC1)[C@H](NC(=O)C1CN(C(=O)c2cncs2)CC12CN(C(=O)[C@H]1CC1(C)C)C2)C(=O)N1CCOCC1 (stereo partly drawn) [I-138]
IC50 [1]: ≤ 0.5 µM
IC50 (Kuramochi cells): ≤ 0.5 µM

CNC(=O)[C@@H](NC(=O)[C@@H]1CN(C(=O)c2cnn(Cc3ccccc3)c2)CC12CN(C(=O)[C@H]1CC1(C)C)C2)[C@@H](C)OCC12CC(C(=O)OC)(C1)C2 [I-299]
IC50 [1]: > 20 µM
IC50 (Kuramochi cells): > 10 µM

C[C@@H](OCC1CCCCC1)[C@H](NC(=O)[C@H]1CN(C(=O)c2cnn(Cc3ccccc3)c2)CC12CN(C(=O)[C@H]1CC1(C)C)C2)C(=O)N1CCOCC1 [I-152B]
IC50 [1]: 5 to 20 µM
IC50 (Kuramochi cells): > 10 µM

CNC(=O)[C@@H](NC(=O)[C@@H]1CN(C(=O)c2cnn(Cc3ccccc3)c2)CC12CN(C(=O)NC(C)C)C2)[C@@H](C)OCC1CCCCC1 [I-267]
IC50 [1]: > 20 µM
IC50 (Kuramochi cells): > 10 µM

CNC(=O)[C@@H](NC(=O)[C@H]1CN(C(=O)c2cnc(Cl)s2)CC12CN(C(=O)[C@H]1CC1(C)C)C2)[C@@H](C)OCC1CCCCC1 [I-189B]
IC50 [1]: > 20 µM
IC50 (Kuramochi cells): > 10 µM

C[C@@H](OCC1CCCCC1)[C@@H](CO)NC(=O)[C@@H]1CN(C(=O)c2cncs2)CC12CN(C(=O)[C@H]1CC1(C)C)C2 [I-307]
IC50 [1]: 0.5 to 5 µM
IC50 (Kuramochi cells): 0.5 to 5 µM

C[C@@H](OCC1CCCCC1)[C@H](NC(=O)[C@@H]1CN(C(=O)c2cncs2)CC12CN(C(=O)[C@H]1CC1(C)C)C2)C(=O)N1CCOCC1 [I-198]
IC50 [1]: ≤ 0.5 µM
IC50 (Kuramochi cells): ≤ 0.5 µM

CC1(C)C[C@@H]1C(=O)N1CC2(CN(C(=O)c3cnn(Cc4ccccc4)c3)C[C@H]2C(=O)NCc2ccc(O)nn2)C1 [I-400]
IC50 [1]: > 20 µM
IC50 (Kuramochi cells): > 10 µM

CC1(C)C[C@@H]1C(=O)N1CC2(CN(C(=O)c3cncs3)C[C@H]2C(=O)NC(c2cccc(C3CCCCC3)n2)C2COCCO2)C1 (stereo partly drawn) [I-496]
IC50 [1]: 5 to 20 µM
IC50 (Kuramochi cells): > 10 µM

C[C@@H](OCC1CCCCC1)[C@H](NC(=O)[C@@H]1CN(C(=O)c2cnn(Cc3ccccc3)c2)CC12CN(C(=O)[C@H]1CC1(C)C)C2)C(=O)N1CCC(F)(F)CC1 [I-149A]
IC50 [1]: ≤ 0.5 µM
IC50 (Kuramochi cells): ≤ 0.5 µM

CC1(C)C[C@@H]1C(=O)N1CC2(CN(C(=O)c3cnn(Cc4ccccc4)c3)C[C@H]2C(=O)N[C@@H]2CCN(C3CC3)C2=O)C1 [I-259]
IC50 [1]: > 20 µM
IC50 (Kuramochi cells): > 10 µM

CNC(=O)[C@@H](NC(=O)[C@@H]1CN(C(=O)c2scnc2C(F)(F)F)CC12CN(C(=O)[C@H]1CC1(C)C)C2)[C@@H](C)OCC1CCCCC1 [I-163A]
IC50 [1]: > 20 µM
IC50 (Kuramochi cells): > 10 µM

CNC(=O)[C@@H](NC(=O)[C@@H]1CN(C(=O)Cc2cnn(Cc3ccccc3)c2)CC12CN(C(=O)[C@H]1CC1(C)C)C2)[C@@H](C)OCc1ccccc1 [I-373]
IC50 [1]: > 20 µM
IC50 (Kuramochi cells): > 10 µM

CNC(=O)[C@@H](NC(=O)[C@@H]1CN(C(=O)c2cnc(C(C)(C)C)s2)CC12CN(C(=O)[C@H]1CC1(C)C)C2)[C@@H](C)OCC1CCCCC1 [I-229A]
IC50 [1]: 0.5 to 5 µM
IC50 (Kuramochi cells): 0.5 to 5 µM

C[C@@H](OCC1CCCCC1)[C@H](NC(=O)[C@@H]1CN(C(=O)c2cnn(C(F)(F)F)c2)CC12CN(C(=O)[C@H]1CC1(C)C)C2)C(=O)N1CCCCC1 [I-115]
IC50 [1]: 5 to 20 µM
IC50 (Kuramochi cells): > 10 µM

C[C@@H](OCc1ccccc1)[C@H](NC(=O)C1CN(C(=O)c2cnn(Cc3ccccc3)c2)CC12CN(C(=O)[C@H]1CC1(C)C)C2)C(=O)N1CCCCC1 (stereo partly drawn) [I-97, 6-(1-benzyl-1H-pyrazole-4-carbonyl)-N-((2S,3R)-3-(benzyloxy)-1-oxo-1-(piperidin-1-yl)butan-2-yl)-2-((S)-2,2-dimethylcyclopropanecarbonyl)-2,6-diazaspiro[3.4]octane-8-carboxamide]
IC50 [1]: 0.5 to 5 µM
IC50 (Kuramochi cells): 0.5 to 5 µM
